Data reported in patent publication US9988341B2, “Bacterial topoisomerase inhibitors and use thereof” (THE FLORIDA INTERNATIONAL UNIVERSITY BOARD OF TRUSTEES, priority 2016, dated 2018).
In brackets after ≈: the same amount, converted by molar mass.

How the values were obtained:
E. coli topoisomerase I = E. coli topoisomerase I (Escherichia coli, UniProt P06612); experiment: Bacterial topoisomerase I relaxation activity inhibition assay (EcTopI); assay type: biochemical
Description: The relaxation activity of bacterial topoisomerase I was assayed in a buffer containing 10 mM Tris-HCl, pH 8.0, 50 mM NaCl, 0.1 mg/mL gelatin, and 0.5 mM MgCl2. One microliter of the compounds dissolved in DMF (dimethylformamide) or solvent alone was mixed with 10 μl of the reaction buffer containing 10 ng of enzyme before the addition of 9 μl of reaction buffer containing 160 ng of supercoiled pBAD/Thio plasmid DNA purified by cesium chloride gradient as substrate. Following incubation at 37° C. for 30 min, the reactions were terminated by the addition of 4 μl of 50% glycerol, 50 mM EDTA, and 0.5% (v/v) bromophenol blue, and analyzed by agarose gel electrophoresis. The gels were stained in ethidium bromide and photographed under UV light.

[1] = target: M. tuberculosis topoisomerase I (Mycobacterium tuberculosis, UniProt P9WG49); experiment: biochemical; settings: Table 3; read-out: MtbTopI IC50
M. tuberculosis topoisomerase I, sequence (P9WG49 whole entry): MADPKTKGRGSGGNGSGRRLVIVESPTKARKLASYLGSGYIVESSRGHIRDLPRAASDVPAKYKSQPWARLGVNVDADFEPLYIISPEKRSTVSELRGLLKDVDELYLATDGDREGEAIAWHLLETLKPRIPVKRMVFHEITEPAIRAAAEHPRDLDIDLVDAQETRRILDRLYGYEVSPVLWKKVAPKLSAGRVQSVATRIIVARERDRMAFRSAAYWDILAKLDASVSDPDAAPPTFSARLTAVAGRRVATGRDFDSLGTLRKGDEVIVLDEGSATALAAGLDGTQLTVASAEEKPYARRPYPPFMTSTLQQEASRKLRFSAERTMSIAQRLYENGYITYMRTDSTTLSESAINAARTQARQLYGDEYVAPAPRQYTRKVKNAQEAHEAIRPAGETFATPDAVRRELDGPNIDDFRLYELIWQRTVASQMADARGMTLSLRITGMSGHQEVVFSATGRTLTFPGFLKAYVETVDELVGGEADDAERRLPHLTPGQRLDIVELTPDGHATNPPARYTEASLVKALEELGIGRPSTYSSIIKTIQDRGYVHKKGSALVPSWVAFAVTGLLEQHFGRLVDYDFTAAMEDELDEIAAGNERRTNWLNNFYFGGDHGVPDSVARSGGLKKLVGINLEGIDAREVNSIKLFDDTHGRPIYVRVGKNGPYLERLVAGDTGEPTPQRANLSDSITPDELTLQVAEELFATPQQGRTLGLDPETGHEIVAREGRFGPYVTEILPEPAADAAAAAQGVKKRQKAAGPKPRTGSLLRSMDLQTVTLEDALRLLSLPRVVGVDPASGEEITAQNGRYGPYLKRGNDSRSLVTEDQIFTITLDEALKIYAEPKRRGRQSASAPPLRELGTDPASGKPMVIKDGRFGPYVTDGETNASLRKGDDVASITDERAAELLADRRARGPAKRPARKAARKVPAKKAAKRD

M. smegmatis mc2 155 = experiment: M. smegmatis growth inhibition (MIC); assay type: cell-based; settings: Mycolicibacterium smegmatis, MC2155
Mtb-lux = assay type: cell-based, M. tuberculosis
[2] = test system: M. smegmatis mc2 155/pTA-noI; experiment: microbe, parasite or virus in culture; assay type: cell-based; settings: Mycolicibacterium smegmatis, MC2155, read-out: MIC, M. smegmatis mc2 155/pTA-noI
Mtb CDC1551 Mtb::lux = experiment: microbe, parasite or virus in culture; assay type: cell-based, M. tuberculosis; settings: Mycobacterium tuberculosis, 120 h; 50% reduction in luminescence signal compared to controls; 5 days
[3] = Resazurin-based cytotoxicity assay; settings: mouse, J774 macrophages, 50% loss of viability in J774 macrophage cell line after 24 hr exposure
Description: (§1) J774 macrophages were cultured in Dulbeco's minimal essential medium (DMEM) supplemented with 10% heat inactivated fetal bovine serum. One day prior to performing the assay 2.5×10^4 cells were seeded on black 384 well. Compounds and controls (0.4% DMSO and 2% Triton X final concentrations) were added 6 hr after seeding. Survival was determined after 24 hr by resazurin reduction measurement. Addition of 0.02 mg/mL resazurin was followed by 4 hours incubation at 37° C. and subsequent fluorescence reading (530 nm/590 nm) using a Synergy H4 (BioTek) plate reader. Data are presented as a percent viability compared to the vehicle (0.4% DMSO) control with 100% being noncytotoxic.

J774 macrophages = experiment: Resazurin-based cytotoxicity assay; settings: 50% loss of viability in J774 macrophage cell line after 24 hr exposure
Description: as §1

MtbTopI = MtbTopI (Mycobacterium tuberculosis, UniProt P9WG49); experiment: Anisotropy assay of DNA binding by MtbTopI; settings: compounds at their IC50 concentrations
Mtb::lux = assay type: cell-based, M. tuberculosis; settings: at higher concentrations; data not shown
M. smegmatis = M. smegmatis loss of viability (viable colony counts); assay type: cell-based
HEK = HEK toxicity
E. coli DNA gyrase = target: T1, E. coli DNA gyrase (Escherichia coli, UniProt P0AES4+P0AES6); experiment: DNA gyrase supercoiling inhibition assay; assay type: biochemical
T1 construct: purchased New England BioLabs
T1 sequence (P0AES4 whole entry, one chain of several): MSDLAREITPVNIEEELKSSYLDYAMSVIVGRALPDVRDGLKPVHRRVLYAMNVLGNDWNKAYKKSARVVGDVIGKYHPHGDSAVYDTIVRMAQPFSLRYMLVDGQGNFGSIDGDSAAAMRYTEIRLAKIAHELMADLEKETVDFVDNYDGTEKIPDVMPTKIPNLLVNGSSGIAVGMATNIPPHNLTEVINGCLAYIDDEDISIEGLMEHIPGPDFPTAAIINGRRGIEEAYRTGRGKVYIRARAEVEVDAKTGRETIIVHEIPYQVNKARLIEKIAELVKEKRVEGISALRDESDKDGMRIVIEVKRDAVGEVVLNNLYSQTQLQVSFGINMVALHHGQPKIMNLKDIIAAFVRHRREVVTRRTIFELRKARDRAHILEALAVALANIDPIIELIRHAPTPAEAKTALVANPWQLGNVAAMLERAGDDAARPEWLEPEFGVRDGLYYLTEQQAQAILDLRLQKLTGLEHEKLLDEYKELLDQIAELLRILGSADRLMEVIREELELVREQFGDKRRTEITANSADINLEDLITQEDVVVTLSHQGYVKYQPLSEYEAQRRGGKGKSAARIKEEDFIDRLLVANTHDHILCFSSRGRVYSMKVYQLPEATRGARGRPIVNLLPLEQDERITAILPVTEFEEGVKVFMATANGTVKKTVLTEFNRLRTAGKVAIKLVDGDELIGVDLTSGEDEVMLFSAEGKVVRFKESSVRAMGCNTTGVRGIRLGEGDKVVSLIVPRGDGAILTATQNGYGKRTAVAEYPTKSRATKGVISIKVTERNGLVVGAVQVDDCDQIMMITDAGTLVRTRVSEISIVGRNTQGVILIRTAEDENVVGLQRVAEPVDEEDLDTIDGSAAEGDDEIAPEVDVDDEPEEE
Description: DNA gyrase (obtained from New England BioLabs) supercoiling assays were carried out by mixing the compounds with 2 U of the enzyme in reaction buffer supplied by the manufacturer, followed by the addition of 300 ng of relaxed covalently closed circular DNA was for a final reaction volume of 20 μL. The samples were incubated at 37° C. for 30 minutes before being terminated by the addition of a buffer containing 5% SDS, 0.25% bromophenol blue, and 25% glycerol. The reactions were then analyzed by agarose gel electrophoresis.

Human topoisomerase I = target: T2, Human topoisomerase I (Homo sapiens, UniProt P11387); experiment: Human topoisomerase I relaxation inhibition assay; assay type: biochemical
T2 construct: purchased TopoGen
T2 sequence (P11387 1-765): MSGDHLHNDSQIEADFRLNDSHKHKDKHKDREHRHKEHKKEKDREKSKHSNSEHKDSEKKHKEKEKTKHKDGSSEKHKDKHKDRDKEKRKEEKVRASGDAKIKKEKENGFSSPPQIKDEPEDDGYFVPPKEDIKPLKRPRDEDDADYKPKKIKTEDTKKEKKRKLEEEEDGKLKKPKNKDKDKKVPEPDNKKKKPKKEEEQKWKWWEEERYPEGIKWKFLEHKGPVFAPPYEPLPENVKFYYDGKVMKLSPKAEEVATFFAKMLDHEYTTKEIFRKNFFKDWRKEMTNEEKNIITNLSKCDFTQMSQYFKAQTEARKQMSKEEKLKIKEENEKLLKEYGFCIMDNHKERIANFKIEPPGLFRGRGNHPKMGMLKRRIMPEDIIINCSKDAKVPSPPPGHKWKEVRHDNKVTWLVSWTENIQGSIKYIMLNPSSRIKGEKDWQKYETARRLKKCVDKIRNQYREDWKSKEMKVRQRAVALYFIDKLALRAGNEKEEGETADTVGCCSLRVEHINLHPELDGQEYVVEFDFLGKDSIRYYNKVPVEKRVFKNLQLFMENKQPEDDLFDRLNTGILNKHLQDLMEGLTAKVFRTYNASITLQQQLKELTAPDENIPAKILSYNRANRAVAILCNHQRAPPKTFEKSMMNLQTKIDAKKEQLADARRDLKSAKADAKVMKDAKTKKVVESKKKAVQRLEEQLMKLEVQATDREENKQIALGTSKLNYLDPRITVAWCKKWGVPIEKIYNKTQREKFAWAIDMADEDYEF
Description: Human topoisomerase I (obtained from TopoGen) relaxation assays were carried out with 0.5 U of enzyme in reaction buffer supplied by the manufacturer. The enzyme was mixed with the indicated concentration of compound dissolved before 160 ng of supercoiled pBAD/Thio plasmid DNA was added in the same buffer, for a final volume of 20 μL. Following incubation at 37° C. for 30 minutes, the reactions were terminated with a buffer containing 5% SDS, 0.25% bromophenol blue, and 25% glycerol, and analyzed by agarose gel electrophoresis.

Human Topoisomerase IIα = target: T3, Human Topoisomerase IIα (Homo sapiens, UniProt P11388); experiment: Human topoisomerase IIα decatenation inhibition assay; assay type: biochemical
T3 construct: purchased TopoGen
T3 sequence (P11388 whole entry): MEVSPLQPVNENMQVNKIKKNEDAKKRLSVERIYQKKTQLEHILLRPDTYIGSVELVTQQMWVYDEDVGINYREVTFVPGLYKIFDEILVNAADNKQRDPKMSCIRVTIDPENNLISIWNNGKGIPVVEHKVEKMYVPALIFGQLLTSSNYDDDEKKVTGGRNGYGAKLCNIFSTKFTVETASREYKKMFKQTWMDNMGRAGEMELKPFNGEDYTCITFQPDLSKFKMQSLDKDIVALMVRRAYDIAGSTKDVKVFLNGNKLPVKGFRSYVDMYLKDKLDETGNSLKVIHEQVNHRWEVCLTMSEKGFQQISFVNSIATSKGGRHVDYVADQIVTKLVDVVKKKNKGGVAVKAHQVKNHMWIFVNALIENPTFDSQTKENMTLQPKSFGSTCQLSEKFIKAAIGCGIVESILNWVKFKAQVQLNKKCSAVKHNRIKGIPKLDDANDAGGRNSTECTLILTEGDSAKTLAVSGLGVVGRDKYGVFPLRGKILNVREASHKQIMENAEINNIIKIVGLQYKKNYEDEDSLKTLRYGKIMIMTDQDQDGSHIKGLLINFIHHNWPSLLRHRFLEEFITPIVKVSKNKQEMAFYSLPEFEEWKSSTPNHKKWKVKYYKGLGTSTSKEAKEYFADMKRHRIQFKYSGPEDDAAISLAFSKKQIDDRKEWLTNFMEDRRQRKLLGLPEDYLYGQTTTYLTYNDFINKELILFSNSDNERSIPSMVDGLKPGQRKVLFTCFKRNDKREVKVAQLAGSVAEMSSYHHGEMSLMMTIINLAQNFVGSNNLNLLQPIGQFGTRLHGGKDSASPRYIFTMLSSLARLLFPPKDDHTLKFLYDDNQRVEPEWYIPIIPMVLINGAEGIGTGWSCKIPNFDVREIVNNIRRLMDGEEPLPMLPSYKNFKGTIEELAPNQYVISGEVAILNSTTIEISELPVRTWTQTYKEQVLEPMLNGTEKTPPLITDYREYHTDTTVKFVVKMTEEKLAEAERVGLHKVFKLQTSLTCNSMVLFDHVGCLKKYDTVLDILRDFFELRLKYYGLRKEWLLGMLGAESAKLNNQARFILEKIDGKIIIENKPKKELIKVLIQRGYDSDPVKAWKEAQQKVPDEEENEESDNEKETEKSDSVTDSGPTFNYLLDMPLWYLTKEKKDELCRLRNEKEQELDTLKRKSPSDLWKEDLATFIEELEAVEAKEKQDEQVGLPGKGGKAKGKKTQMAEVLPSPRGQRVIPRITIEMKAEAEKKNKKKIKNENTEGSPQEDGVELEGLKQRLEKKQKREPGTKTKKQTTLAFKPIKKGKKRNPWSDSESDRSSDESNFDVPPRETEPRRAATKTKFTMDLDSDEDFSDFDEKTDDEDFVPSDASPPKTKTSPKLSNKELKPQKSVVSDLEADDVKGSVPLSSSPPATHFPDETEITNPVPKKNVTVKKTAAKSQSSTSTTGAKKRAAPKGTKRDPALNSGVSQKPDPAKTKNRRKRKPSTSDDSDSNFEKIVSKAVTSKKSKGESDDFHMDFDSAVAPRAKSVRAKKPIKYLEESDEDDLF
Description: Human Topoisomerase IIα (obtained from TopoGen) assays were carried out by adding the compounds to 180 ng of kinetoplast DNA (kDNA) in the buffer supplied by the manufacturer before the addition of 2 U of the enzyme. The samples were incubated for 15 minutes at 37° C. before the addition of 4 μl of stop buffer containing 5% sarkosyl, 0.0025% bromophenol blue, and 25% glycerol. The reactions were then analyzed by electrophoresis in 1% agarose gels containing 0.5 μg ml^−1 ethidium bromide before being photographed under UV light.

E. coli topoisomerase I, sequence (P06612 whole entry): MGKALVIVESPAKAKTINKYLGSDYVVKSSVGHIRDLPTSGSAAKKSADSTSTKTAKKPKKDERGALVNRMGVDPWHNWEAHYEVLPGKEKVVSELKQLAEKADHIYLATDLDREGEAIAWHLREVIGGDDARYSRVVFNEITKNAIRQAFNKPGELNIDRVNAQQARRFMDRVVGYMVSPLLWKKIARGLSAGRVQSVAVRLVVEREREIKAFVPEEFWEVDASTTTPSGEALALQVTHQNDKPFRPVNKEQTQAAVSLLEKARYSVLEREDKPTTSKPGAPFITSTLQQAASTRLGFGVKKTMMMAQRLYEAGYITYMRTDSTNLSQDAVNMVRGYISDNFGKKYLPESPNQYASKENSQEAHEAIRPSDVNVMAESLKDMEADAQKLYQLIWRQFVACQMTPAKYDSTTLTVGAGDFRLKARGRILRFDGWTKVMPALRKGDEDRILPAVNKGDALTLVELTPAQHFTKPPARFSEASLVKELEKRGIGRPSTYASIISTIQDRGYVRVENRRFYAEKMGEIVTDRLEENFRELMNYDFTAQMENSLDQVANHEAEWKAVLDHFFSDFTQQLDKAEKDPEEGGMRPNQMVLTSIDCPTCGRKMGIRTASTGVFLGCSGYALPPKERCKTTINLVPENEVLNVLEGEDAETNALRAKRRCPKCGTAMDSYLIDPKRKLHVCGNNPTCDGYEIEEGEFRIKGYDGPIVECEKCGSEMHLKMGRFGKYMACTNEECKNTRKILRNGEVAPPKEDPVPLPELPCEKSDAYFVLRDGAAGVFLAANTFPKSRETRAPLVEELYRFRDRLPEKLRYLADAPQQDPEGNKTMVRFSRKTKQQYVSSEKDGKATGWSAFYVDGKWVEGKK

CCCC[C@@H](CN[C@H](CN)CCCCNC)NCc1cccc2ccccc12 [Compound 2471-12, (S)—N6-methyl-N2-((S)-2-(naphthalen-1-ylmethylamino)hexyl)hexane-1,2,6-triamine]
IC50 (E. coli topoisomerase I): 7.5 µM
IC50 [1]: 7.5 µM
MIC (M. smegmatis mc2 155): 25 µM (≈ 9.62 µg/mL)
Percent Mtb-lux killing 5 μg/mL (Mtb-lux): 70.9%
MIC [2]: 12.5 µM (≈ 4.81 µg/mL)
IC50 (Mtb CDC1551 Mtb::lux): 6.8 µM
CC50 at 24 h [3]: ~100 µM
CC50 (J774 macrophages): 104 µM
Effect on binding of MtbTopI to oligonucleotide substrate (MtbTopI): did not inhibit
Reduction of Mtb CFU (Mtb::lux): 1 log
Time course of loss of viable colony counts, control cloning vector (M. smegmatis): rapid killing
Percent HEK toxicity 6.25 μg/mL (HEK): 15.2%

CCCC[C@@H](CN[C@H](CN)CCN)NCc1cccc2ccccc12 [Compound 2471-24, (S)—N2-((S)-2-(naphthalen-1-ylmethylamino)hexyl)butane-1,2,4-triamine]
IC50 (E. coli topoisomerase I): 10 µM
IC50 [1]: 7.5 µM
MIC (M. smegmatis mc2 155): 50 µM (≈ 17.1 µg/mL)
Percent Mtb-lux killing 5 μg/mL (Mtb-lux): 64.3%
MIC [2]: 25 µM (≈ 8.56 µg/mL)
IC50 (Mtb CDC1551 Mtb::lux): 8.4 µM
CC50 at 24 h [3]: ~100 µM
CC50 (J774 macrophages): 101 µM
IC50 (E. coli DNA gyrase): > 160 µM
IC50 (Human topoisomerase I): > 160 µM
Reduction of Mtb CFU (Mtb::lux): 1 log
Percent HEK toxicity 6.25 μg/mL (HEK): 5.4%

CCCC[C@@H](CN[C@@H](CN)CCCCNC)NCc1cccc2ccccc12 [Compound 2471-36]
IC50 (E. coli topoisomerase I): 20 µM
IC50 [1]: 15 µM
MIC (M. smegmatis mc2 155): 25 µM (≈ 9.62 µg/mL)
Percent Mtb-lux killing 5 μg/mL (Mtb-lux): 99.2%
IC50 (Mtb CDC1551 Mtb::lux): 3.3 µM
CC50 at 24 h [3]: ~40 µM
CC50 (J774 macrophages): 36.5 µM
IC50 (E. coli DNA gyrase): > 160 µM
IC50 (Human topoisomerase I): > 160 µM
IC50 (Human Topoisomerase IIα): > 160 µM
Percent HEK toxicity 6.25 μg/mL (HEK): 15.3%
